Tested on: HepG2 cells
Assay: Metabolism of model drug (fluorescein diacetate) by HepG2 cell hepatic tissue-type chip and excretion and accumulation of metabolites to bile canaliculus-like structure
Assay type: in vitro ADME, human
Conditions: for distribution of fluorescein metabolized by HepG2 cells (green fluorescence): 1 hour uptake, after washing twice
Procedure: (1) A culture medium containing fluorescein diacetate (FD) as a model drug at a concentration of 250 μg/mL was prepared, and 5 mL thereof was poured into a dish (60 mm in diameter ).
(2) Next, the hepatic tissue-type chip on day 7 of culturing produced using HepG2 cells in Example 1 was immersed in the FD-containing culture medium prepared in (1) and cultured for 1 hour, such that the FD was taken into the cells.
(3) Next, the chip was transferred into a new dish (diameter: 60 mm), into which 5 mL of Hank's Balanced Salt Solution (HBSS) was poured, and washed.
(4) Next, the hepatic tissue-type chip was transferred into a new dish (diameter 60 mm ) into which 5 mL of a fresh culture medium was poured, immersed in the culture medium, and cultured for 1 hour. The discharging of fluorescein in the cells after 1 hour was confirmed by observation with a phase contrast microscope and a fluorescence microscope (refer to FIG. 8(A) to FIG. 8(C)).
(1) HBSS containing fluorescein diacetate (FD) as a model drug at a concentration of 25 μg/mL was prepared, and 5 mL thereof was poured into a dish (60 mm in diameter).
(2) Next, on day 32 of culturing, the hepatic tissue-type chip produced using HepG2 cells in Example 3 was immersed in the FD-containing HBSS prepared in (1) and cultured for 1 hour such that the FD was taken into the cells.
(3) Next, the result was transferred into a new dish (diameter 60 mm) into which 5 mL of HBSS was poured, and washed.
(4) Next, the hepatic tissue-type chip was transferred into a new dish (diameter 60 mm) into which 5 mL of fresh HBSS was poured, immersed in HBSS, and cultured for 1 hour. The discharge of fluorescein in the cells after 1 hour was confirmed by observation with a phase contrast microscope and a fluorescence microscope (refer to FIG. 12A (phase contrast microscope image) and FIG. 12B (fluorescence microscope image)). […]

O=C1OC2(c3ccc(O)cc3Oc3cc(O)ccc32)c2ccccc21 [fluorescein]
excretion of fluorescein from the cells (Example 2, chip on day 7 of culturing, 1 hour further culture in fresh culture medium after washing): excreted and accumulated in the bile canaliculus-like structure
distribution of fluorescein metabolized by HepG2 cells (green fluorescence) (Example 2, chip on day 7 of culturing, FD 250 μg/mL in culture medium): uniformly distributed in the cytoplasm
excretion of fluorescein from the cells (Example 4, chip on day 32 of culturing, 1 hour further culture in fresh HBSS after washing): excreted and accumulated in the bile canaliculus-like structure
distribution of fluorescein metabolized by HepG2 cells (green fluorescence) (Example 4, chip on day 32 of culturing, FD 25 μg/mL in HBSS): uniformly distributed in the cytoplasm
excretion of fluorescein from the cells (Example 10, chip on day 35 of culturing, 1 hour further culture in fresh HBSS after washing): excreted and accumulated in the bile canaliculus-like structure
distribution of fluorescein metabolized by HepG2 cells (green fluorescence) (Example 10, chip on day 35 of culturing, FD 25 μg/mL in HBSS): uniformly distributed in the cytoplasm

Source: US20210230526A1, “Cell enclosure device and use for same” (National Agriculture and Food Research Organization, priority 2016, published 2021)
